Experimental data as given in US11584710B2, “Compounds for treating infections” (HORITZONTS TECNOLOGICS HUNGARY KORLÁTOLT FELELOSSÉGU …, priority 2017, dated 2023).

Experiments:
S. pyogenes = test: Kirby-Bauer disk diffusion susceptibility test; assay type: cell-based; conditions: 300 μg/disc
Procedure: (§1) Bacterial strains, from clinical origin, were supplied by the National Center for Microbiology, Institute of Health Carlos III (Majadahonda, Madrid). They are detailed in Table 1.
(§2) Bacterial cells suspension in sterile saline was prepared from a culture of 24-72 h, depending on bacterial species, in Mueller-Hinton Agar with 5% sheep blood. Each suspension was adjusted to a fixed size inoculum of 1-5×10^8 CFU/ml with a spectrophotometer (Ferraro, MJ National Committee for Clinical Laboratory Standards. 2000).
(§3) Kirby-Bauer disk diffusion susceptibility test protocol was utilized to determine the sensitivity or resistance of pathogenic bacteria against the compounds and others antibiotics. The absence of growth around the disks is an indirect measure of the ability of this compound to inhibit an organism (Kirby, W., et al., Antibiotics Annu. 1956-1957:892). After 18 to 72 hours of incubation at 37° C., with or without CO2, under aerobic or anaerobic conditions, depending on the bacterial species, halo of growth inhibition were obtained and evaluated.
(§4) Interpretation of susceptibility and resistance was based on the presence or absence of a zone of inhibition surrounding the disk. Kirby-Bauer disk diffusion susceptibility test is a common method which uses antibiotic-impregnated wafers to test whether bacteria are affected by antibiotics. The size of the zone of inhibition depends on how effective the antibiotic is at stopping the growth of the bacterium. A stronger antibiotic will create a larger zone, because a lower concentration of the antibiotic is enough to stop growth.
(§5) All compounds were tested at 300 μg/disc.

K. pneumoniae = test: Kirby-Bauer disk diffusion susceptibility test; assay type: cell-based
Procedure: as §1, §2, §3, §4, §5

S. pneumoniae = test: Kirby-Bauer disk diffusion susceptibility test; assay type: cell-based
Procedure: as §1, §2, §3, §4, §5

T. pulmonis = test: Kirby-Bauer disk diffusion susceptibility test; assay type: cell-based
Procedure: as §1, §2, §3, §4, §5

N. cyriacigeorgica = test: Kirby-Bauer disk diffusion susceptibility test; assay type: cell-based
Procedure: as §1, §2, §3, §4, §5

C. difficile = test: Kirby-Bauer disk diffusion susceptibility test; assay type: cell-based
Procedure: as §1, §2, §3, §4, §5

N. carnea = test: Kirby-Bauer disk diffusion susceptibility test; assay type: cell-based
Procedure: as §1, §2, §3, §4, §5

S. epidermidis = test: Kirby-Bauer disk diffusion susceptibility test; assay type: cell-based; conditions: 300 μg
Procedure: as §1, §2, §3, §4, §5

A. baumannii = test: Kirby-Bauer disk diffusion susceptibility test; assay type: cell-based; conditions: 300 μg
Procedure: as §1, §2, §3, §4, §5

P. aeruginosa = test: Kirby-Bauer disk diffusion susceptibility test; assay type: cell-based; conditions: 300 μg
Procedure: as §1, §2, §3, §4, §5

E. faecalis = test: Kirby-Bauer disk diffusion susceptibility test; assay type: cell-based; conditions: E. foecalis; 300 μg
Procedure: as §1, §2, §3, §4, §5

E. cloacae = test: Kirby-Bauer disk diffusion susceptibility test; assay type: cell-based; conditions: 300 μg
Procedure: as §1, §2, §3, §4, §5

E. coli = test: Kirby-Bauer disk diffusion susceptibility test; assay type: cell-based; conditions: 300 μg
Procedure: as §1, §2, §3, §4, §5

E. faecium = test: Kirby-Bauer disk diffusion susceptibility test; assay type: cell-based; conditions: 300 μg
Procedure: as §1, §2, §3, §4, §5

M. abscessus = test: Kirby-Bauer disk diffusion susceptibility test; assay type: cell-based; conditions: 300 μg
Procedure: as §1, §2, §3, §4, §5

A. fumigatus [1] = tested on: A. fumigatus; parameters: key: I = intermediate activity; S = susceptibility; R = Resistance; conditions: A. fumigatus clinical strain; cited from earlier work
C. lusitaniae [2] = tested on: C. lusitaniae; parameters: key: I = intermediate activity; S = susceptibility; R = Resistance; conditions: C. lusitaniae clinical strain; cited from earlier work
A. terreus [3] = tested on: A. terreus; parameters: key: I = intermediate activity; S = susceptibility; R = Resistance; conditions: A. terreus clinical strain; cited from earlier work
S. cerevisiae [4] = tested on: S. cerevisiae; parameters: key: I = intermediate activity; S = susceptibility; R = Resistance; conditions: S. cerevisiae clinical strain; cited from earlier work
C. Krusei = tested on: C. Krusei; parameters: key: I = intermediate activity; S = susceptibility; R = Resistance; conditions: C. Krusei clinical strain; cited from earlier work
A. niger [5] = tested on: A. niger; parameters: key: I = intermediate activity; S = susceptibility; R = Resistance; conditions: A. niger clinical strain; cited from earlier work
C. glabrata = tested on: C. glabrata; parameters: key: I = intermediate activity; S = susceptibility; R = Resistance; conditions: C. glabrata clinical strain; cited from earlier work
C. guillermondii [6] = test: Antifungal disk diffusion susceptibility test (CLSI M44); assay type: cell-based; conditions: read-out: Activity (mm)
Procedure: (§6) Filamentous fungi and yeasts strains, from clinical origin, were supplied by Microbiology Service from The Princess Hospital, Madrid. They are detailed in Table IX.
(§7) Filamentous fungi and yeast cells suspensions in distilled water was prepared from a culture of 24-48 h, depending on species, in Sabouraud agar. Each suspension was adjusted to a fixed size inoculum of 1-5×10^8 CFU/ml with a spectrophotometer (Ferraro, MJ National Committee for Clinical Laboratory Standards. 2000).
(§8) Antifungal susceptibility tests were developed following the standardized methodology detailed in document CLSI: M44-4: Method for Antifungal Disk diffusion susceptibility testing of yeasts consisting of disk diffusion on agar Muller-Hinton (supplemented with 2% glucose).

C. albicans [7] = test: as above; assay type: cell-based; conditions: Candida albicans, read-out: Activity (mm)
Procedure: as §6, §7, §8

C. lusitaniae [8] = test: as above; assay type: cell-based; conditions: Clavispora lusitaniae, read-out: Activity (mm)
Procedure: as §6, §7, §8

C. parapsilosis [9] = test: as above; assay type: cell-based; conditions: Lodderomyces parapsilosis, read-out: Activity (mm)
Procedure: as §6, §7, §8

S. cerevisiae [10] = test: as above; assay type: cell-based; conditions: Saccharomyces cerevisiae, read-out: Activity (mm)
Procedure: as §6, §7, §8

A. flavus [11] = test: as above; assay type: cell-based; conditions: Aspergillus flavus, read-out: Activity (mm)
Procedure: as §6, §7, §8

A. terreus [12] = test: as above; assay type: cell-based; conditions: Aspergillus terreus, read-out: Activity (mm)
Procedure: as §6, §7, §8

C. tropicalis [13] = test: as above; assay type: cell-based; conditions: Candida tropicalis, read-out: Activity (mm)
Procedure: as §6, §7, §8

A. niger [14] = test: as above; assay type: cell-based; conditions: Aspergillus niger, read-out: Activity (mm)
Procedure: as §6, §7, §8

A. fumigatus [15] = test: as above; assay type: cell-based; conditions: Aspergillus fumigatus, read-out: Activity (mm)
Procedure: as §6, §7, §8

C. tropicalis [16] = tested on: C. tropicalis; parameters: key: I = intermediate activity; S = susceptibility; R = Resistance; conditions: C. tropicalis clinical strain; cited from earlier work
C. albicans [17] = tested on: C. albicans; parameters: key: I = intermediate activity; S = susceptibility; R = Resistance; conditions: C. albicans clinical strain; cited from earlier work
C. guillermondii [18] = tested on: C. guillermondii; parameters: key: I = intermediate activity; S = susceptibility; R = Resistance; conditions: C. guillermondii clinical strain; cited from earlier work
A. flavus [19] = tested on: A. flavus; parameters: key: I = intermediate activity; S = susceptibility; R = Resistance; conditions: A. flavus clinical strain; cited from earlier work
C. parapsilosis [20] = tested on: C. parapsilosis; parameters: key: I = intermediate activity; S = susceptibility; R = Resistance; conditions: C. parapsilosis clinical strain; cited from earlier work

NNC(=O)C(=O)NOc1ccccc1 [MSG-196]
Activity detected (mm) (S. pyogenes): 20 mm | Activity detected (mm) (K. pneumoniae; 300 μg/disc): 13 mm | Activity detected (mm) (S. pneumoniae; 300 μg/disc): 20 mm | Activity detected (mm) (T. pulmonis; 300 μg/disc): 22 mm | Activity detected (mm) (N. cyriacigeorgica; 300 μg/disc): 34 mm | Activity detected (mm) (C. difficile; 300 μg/disc): 18 mm | Activity detected (mm) (N. carnea; 300 μg/disc): 30 mm

COc1ccccc1NNC(=O)C(=O)NN [MSG-235]
Antibiotic activity (Table VIII, zone of inhibition) (S. epidermidis): 27 mm | Antibiotic activity (Table VIII, zone of inhibition) (A. baumannii): 15 mm | Antibiotic activity (Table VIII, zone of inhibition) (P. aeruginosa): 11 mm | Antibiotic activity (Table VIII, zone of inhibition) (K. pneumoniae; 300 μg): 12 mm | Antibiotic activity (Table VIII, zone of inhibition) (S. pneumoniae; 300 μg): 21 mm | Antibiotic activity (Table VIII, zone of inhibition) (E. faecalis): 25 mm | Antibiotic activity (Table VIII, zone of inhibition) (E. cloacae): 11 mm | Antibiotic activity (Table VIII, zone of inhibition) (E. coli): 14 mm | Antibiotic activity (Table VIII, zone of inhibition) (T. pulmonis; 300 μg): 24 mm | Antibiotic activity (Table VIII, zone of inhibition) (N. cyriacigeorgica; 300 μg): 29 mm | Antibiotic activity (Table VIII, zone of inhibition) (C. difficile; 300 μg): 20 mm | Antibiotic activity (Table VIII, zone of inhibition) (E. faecium): 22 mm | Antibiotic activity (Table VIII, zone of inhibition) (N. carnea; 300 μg): 34 mm | Antibiotic activity (Table VIII, zone of inhibition) (M. abscessus): 23 mm

CC(=O)N1CCN(c2ccc(OCC3COC(Cn4ccnc4)(c4ccc(Cl)cc4Cl)O3)cc2)CC1 (stereo not shown) [Ket, ketoconazole]
Susceptibility of the strain (A. fumigatus [1]): S | Susceptibility of the strain (C. lusitaniae [2]): S | Susceptibility of the strain (A. terreus [3]): S | Susceptibility of the strain (S. cerevisiae [4]): S | Susceptibility of the strain (C. Krusei): S | Susceptibility of the strain (A. niger [5]): S | Susceptibility of the strain (C. glabrata): S | zone of inhibition at 50 µg/disc (C. guillermondii [6]): 44 mm | zone of inhibition at 50 µg/disc (C. albicans [7]): 22 mm | zone of inhibition at 50 µg/disc (C. lusitaniae [8]): 41 mm | zone of inhibition at 50 µg/disc (C. parapsilosis [9]): 42 mm | zone of inhibition at 50 µg/disc (S. cerevisiae [10]): 30 mm | zone of inhibition at 50 µg/disc (A. flavus [11]): 32 mm | zone of inhibition at 50 µg/disc (A. terreus [12]): 26 mm | zone of inhibition at 50 µg/disc (C. tropicalis [13]): 25 mm | zone of inhibition at 50 µg/disc (A. niger [14]): 25 mm | zone of inhibition at 50 µg/disc (A. fumigatus [15]): 22 mm | Susceptibility of the strain (C. tropicalis [16]): S | Susceptibility of the strain (C. albicans [17]): S | Susceptibility of the strain (C. guillermondii [18]): R | Susceptibility of the strain (A. flavus [19]): S | Susceptibility of the strain (C. parapsilosis [20]): S
